Patent US20110230476A1, “PI3 KINASE INHIBITORS AND USES THEREOF” (AVILA THERAPEUTICS, INC., priority 2009, published 2011)
“Also recorded” adds a separate entry of the source.

Assays:
[1] = molecular target: T1, PI3Kα (p110α/p85α) (Homo sapiens, UniProt P42336); experiment: HTRF assay, potency against active PI3Kα; assay type: biochemical; conditions: HTRF; [ATP]=50 μM, [di-C8-PIP2]=10 μM; 30 min pre-incubation; read-out: PI3Kα Inhibition
T1 construct: purchased BPS Bioscience (San Diego, Calif.) or Millipore (Billerica, Mass.)
Outline: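 IC50 came from a variable-slope fit of % inhibition, calculated from the HTRF emission ratio relative to wells with and without enzyme. Reactions with the active enzyme complex ran 30-60 minutes at 25 °C after ATP addition before stop and detection reagents.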

[2] = molecular target: T2, PI3Kγ (p120γ) (Homo sapiens, UniProt P48736); experiment: HTRF assay, potency against active PI3Kγ; assay type: biochemical; conditions: [ATP]=50 μM, [di-C8-PIP2]=10 μM, 30 min pre-incubation, read-out: PI3Kγ Inhibition
T2 construct: purchased BPS Bioscience (San Diego, Calif.) or Millipore (Billerica, Mass.)
Outline: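 End-point competition HTRF: enzyme (p110β/p85α 0.75 nM; p120γ 2-2.5 nM) with 10 μM di-C8-PIP2 pre-incubated 30 min at 25° C with compound, then 50 μM ATP added for 30-60 min at 25° C. Stopped, detected after 1 and 18 h; IC50 from variable-slope fit.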

[3] = molecular target: T3, PI3Kβ (p110β/p85α) (Homo sapiens, UniProt P42338); experiment: HTRF assay, potency against active PI3Kβ; assay type: biochemical; conditions: [ATP]=50 μM, [di-C8-PIP2]=10 μM, 30 min pre-incubation, read-out: PI3Kβ Inhibition
T3 construct: purchased BPS Bioscience (San Diego, Calif.) or Millipore (Billerica, Mass.)
Protocol: Homogeneous Time Resolved Fluorescence (HTRF) Assay Protocol for Potency Assessment Against the Active Forms of PI3Kα, PI3Kβ, and PI3Kγ
The mechanics of the assay platform are best described by the vendor (Millipore, Billerica, Mass.) on their website at the following URL: www.millipore.com/coa/tech1/74jt4z.
Briefly, Stop solution (Stop A, #33-007 and Stop B, #33-009; 3:1 ratio) and Detection Mix (from DMC, #33-015 with DMA, #33-011 and DMB, #33-013; 18:1:1 ratio) were prepared as recommended by the manufacturer about 2 hrs prior to use. […] Lipid kinase reactions were started with the addition of 5 μL of ATP solution, mixed for 15 sec on a rotary plate shaker and incubated for 30-60 minutes at 25° C. Next, reactions were stopped with a 5 μL addition of Stop solution immediately followed by a 5 μL volume of Detection Mix. […] At the conclusion of each assay, the HTRF ratio from fluorescence emission values for each well was calculated and % Inhibition determined from averaged controls wells (+/−PI3K enzyme). % Inhibition values for each compound were then plotted against inhibitor concentration to estimate IC50 from log [Inhibitor] vs Response, Variable Slope model in GraphPad Prism from GraphPad Software (San Diego, Calif.).

[4] = tested on: Phospho-Akt(Ser473); experiment: Dose response in SKOV3 cells as determined by in-cell Western; assay type: cell-based
Outline: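 SKOV3 cells treated with compound for 1 hr, then formaldehyde-fixed, permeabilised and stained overnight for phospho-Akt(Ser473) with anti-tubulin as a reference. Infrared secondary antibodies read at 680 and 800 nm channels by in-cell Western imaging.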

[5] = tested on: PI3 kinase; experiment: Comparison of covalent and non-covalent inhibitors (Tables 18 and 19): prolonged PD, mechanism
Protocol: “A” designates ≦10 nM; “B” designates 10-100 nM; and “C” designates 100-1000 nM

[6] = tested on: Phospho-Akt(Ser473); experiment: Dose response in SKOV3 cells as determined by Western blot; assay type: cell-based; conditions: Homo sapiens, SK-OV-3, 1 hr, Phospho-Akt normalized to total Akt, read-out: Immunoblot
Outline: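 SKOV3 cells in DMEM/10% FBS were treated with compound in 0.1% DMSO for 1 hr, then lysed. 50 ug protein was immunoblotted for Phospho-Akt(Ser473) and total Akt with fluorescent read-out. Phospho-Akt was normalized to total Akt and expressed as percent of untreated signal.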

[7] = tested on: SKOV3 cells; experiment: GI50 determinations in SKOV3 cells; assay type: cell-based; conditions: Homo sapiens, SK-OV-3
Protocol: GI50 Determinations in SKOV3 Cells
A standard curve ranging from 10,000 to 50,000 cells was set up in a separate plate and allowed to adhere to the plate for 4-6 hours, at which time the plate was developed using Cell Titer-Glow (Promega, Madison, Wis.) according to manufacturer's instructions.
The next morning, 3-fold compound dilutions ranging from 10,000 nM to 40 nM were prepared in Proliferation Media containing 1% DMSO. 20 ul of each dilution was added to the SKOV3 cells plated the previous day resulting in a dose response curve from 1000 nM to 4 nM. The cells were incubated for 96 hours and then developed with Cell Titer Glo.
The cell numbers at the end of the assay were determined using the standard curve generated at the start of the assay. Growth inhibition was calculated using the following formulas and GI50s were determined by plotting the % growth inhibition vs. Log compound concentration in GraphPad.
%growth=100×(T−T0)/(C−T0)
T=Cell Number at end of assay T0=Cell Number at start of assay (5000) C=Number of cells in DMSO controls at end of assay
%growth inhibition=100−%growth

[8] = molecular target: p110alpha (Homo sapiens, UniProt P42336); experiment: In vitro occupancy in SKOV-3 cells with covalent probe; assay type: cell-based
Protocol: 150 ug of protein sample was added to a 0.2 ml tube and the volume brought up to 100 ul with IP Buffer from the Protein A/G Plate IP Kit (Pierce Biotechnology, Rockford, Ill.). XIV-a-3 was added at a concentration of 1 uM or XIV-a-4 was added at 50 nM and the tube was incubated at room temperature with rocking for 1 hr.
Protein A/G coated wells from the Protein A/G Plate IP Kit were washed 3× with 200 ul of IP Buffer. […] After incubating at room temperature with shaking for 1 hour, the wells were washed 5× with 200 ul of IP Buffer and the protein samples, preincubated with XIV-a-3, were added to the wells. The wells were incubated overnight at 4° C. with shaking.
The next morning, the wells were washed 5× with 200 ul of IP Buffer. The last wash was allowed to stand for 5 minutes before removal. The immuoprecipitate was eluted from the plate with 40 ul of Pierce Elution Buffer for 30 seconds, after which time the eluate was moved to a 1.5 ml tube containing 4 ul of Pierce Neutralization Buffer. 15 ul of NuPAGE LDS Sample Buffer and 6 ul of NuPAGE Sample Reducing Agent (Invitrogen, Carlsbad, Calif.) were added to each tube and the samples were incubated at 70° C. for 5 minutes.
The blot was rinsed once in water, then incubated for 2 minutes in Qentix Solution 1 (Pierce Biotechnology) followed by 5 rinses in water. The blot was then incubated for 10 minutes in Qentix solution 2, rinsed 5 times in water then blocked in Odyssey Blocking Buffer (Li-Cor) for an hour.
The blot was then incubated overnight at 4° C. with rabbit anti-p110 alpha antibody (Epitomics, Burlingame, Calif.) diluted 1:2500 in PBS/Odyssey Buffer (1:1)+0.1% Tween-20. […]
The blots were washed 2 times for 5 minutes in PBS+0.2% Tween-20, once in distilled water, then scanned on an Odyssey machine (Li-Cor, Lincoln, Nebr.). Band intensity was determined using the Odyssey software and streptavidin (Tool) signal was normalized to total p110 alpha signal within samples, then expressed as a percentage of the untreated signal.

[9] = molecular target: T4, PI3Kα (Homo sapiens, UniProt P42336); experiment: Mass spectrometry of intact PI3Kα (Millipore, 14-602), 1 hr incubation; assay type: binding; parameters: purchased Millipore 14-602; conditions: 10× fold excess of compound, MALDI
Protocol: (§1) Mass Spectrometry for PI3K
Aliquots (5 μl) of the samples were diluted with 15 μl of 0.2% TFA prior to micro C4 ZipTipping directly onto the MALDI target using Sinapinic acid as the desorption matrix (10 mg/ml in 0.1% TFA:Acetonitrile 50:50).
Target sequence in this assay (P42336 whole entry): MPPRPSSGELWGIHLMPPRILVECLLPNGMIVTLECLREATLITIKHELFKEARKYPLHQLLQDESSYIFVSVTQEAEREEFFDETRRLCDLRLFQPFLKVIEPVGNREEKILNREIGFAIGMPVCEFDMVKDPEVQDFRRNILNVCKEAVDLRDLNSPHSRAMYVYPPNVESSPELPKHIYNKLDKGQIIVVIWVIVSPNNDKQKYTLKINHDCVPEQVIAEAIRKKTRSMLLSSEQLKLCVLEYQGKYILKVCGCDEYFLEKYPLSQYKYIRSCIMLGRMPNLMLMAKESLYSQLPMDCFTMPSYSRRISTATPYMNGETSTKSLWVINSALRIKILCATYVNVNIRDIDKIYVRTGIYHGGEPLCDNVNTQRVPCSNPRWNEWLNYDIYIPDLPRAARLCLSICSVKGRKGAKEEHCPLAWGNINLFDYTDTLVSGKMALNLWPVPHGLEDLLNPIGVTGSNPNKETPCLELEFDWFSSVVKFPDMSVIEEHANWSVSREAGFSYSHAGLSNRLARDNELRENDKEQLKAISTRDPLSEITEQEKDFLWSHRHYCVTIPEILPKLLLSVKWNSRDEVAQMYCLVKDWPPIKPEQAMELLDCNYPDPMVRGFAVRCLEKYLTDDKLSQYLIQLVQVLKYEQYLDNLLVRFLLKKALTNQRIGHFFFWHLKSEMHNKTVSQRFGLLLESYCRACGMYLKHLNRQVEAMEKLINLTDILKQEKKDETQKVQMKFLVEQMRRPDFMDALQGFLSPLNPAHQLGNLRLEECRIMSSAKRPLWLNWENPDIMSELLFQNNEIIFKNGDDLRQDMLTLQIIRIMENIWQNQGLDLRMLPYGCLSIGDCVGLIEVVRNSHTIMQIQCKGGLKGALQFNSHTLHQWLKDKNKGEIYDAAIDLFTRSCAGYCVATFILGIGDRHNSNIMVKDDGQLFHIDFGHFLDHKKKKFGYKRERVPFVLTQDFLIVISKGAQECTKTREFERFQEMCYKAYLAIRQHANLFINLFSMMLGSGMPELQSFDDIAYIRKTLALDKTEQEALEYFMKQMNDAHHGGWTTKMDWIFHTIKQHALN
Target sequence in this assay (P27986 whole entry partner): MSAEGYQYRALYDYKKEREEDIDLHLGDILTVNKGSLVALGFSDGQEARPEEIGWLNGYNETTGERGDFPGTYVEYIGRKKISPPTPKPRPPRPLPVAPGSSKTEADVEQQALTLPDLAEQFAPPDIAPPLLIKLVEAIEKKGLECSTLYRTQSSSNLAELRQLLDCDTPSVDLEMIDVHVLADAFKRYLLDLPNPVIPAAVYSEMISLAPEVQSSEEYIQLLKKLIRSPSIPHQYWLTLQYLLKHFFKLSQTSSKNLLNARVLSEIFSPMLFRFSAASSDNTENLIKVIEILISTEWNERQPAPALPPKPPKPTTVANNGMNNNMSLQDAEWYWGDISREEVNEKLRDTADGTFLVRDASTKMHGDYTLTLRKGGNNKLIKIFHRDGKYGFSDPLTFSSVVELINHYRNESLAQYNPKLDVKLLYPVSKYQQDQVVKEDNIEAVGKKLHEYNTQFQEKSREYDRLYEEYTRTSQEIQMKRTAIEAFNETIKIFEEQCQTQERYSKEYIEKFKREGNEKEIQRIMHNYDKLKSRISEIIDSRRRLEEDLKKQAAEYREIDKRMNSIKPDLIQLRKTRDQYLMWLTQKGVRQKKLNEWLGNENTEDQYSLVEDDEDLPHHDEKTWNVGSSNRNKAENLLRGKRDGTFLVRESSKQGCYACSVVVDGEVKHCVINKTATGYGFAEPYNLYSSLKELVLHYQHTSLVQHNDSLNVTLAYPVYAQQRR

[10] = tested on: PI3K; experiment: PI3K HCT116 cellular assay (Western blot); assay type: cell-based; conditions: Homo sapiens, HCT-116, HCT116 colon cancer cells, 1 hour incubation, read-out: PI3K Inhibition
Protocol: PI3K HCT116 Cellular Assay
Selected compounds were assayed in HCT116 colon cancer cells. […] Cells were then washed with PBS, lysed and the protein lysates were then recovered and analyzed by Western blot.

[11] = tested on: HCT116 cells; experiment: HCT-116 cell proliferation assay; assay type: cell-based; conditions: Homo sapiens, 72 hours, Cell Titer Glo
Protocol: HCT-116 Cell Proliferation Assay
(§2) For the HCT116 Proliferation Assay, 3000 cells per well were plated in Growth Media (DMEM, 10% FBS, 1% 1-glutamine, 1% penicillin/streptomycin) in 96 well plates. The following day, compounds were added to duplicate wells at concentrations of 10 uM and 3-fold dilutions down to 40 nM. The plates were returned to the incubator for 72 hours and then the assays were developed using Cell Titer Glo (Promega, Madison, Wis.) according to manufacturer's instructions.

[12] = tested on: SK-OV-3 cells; experiment: SK-OV-3 cell proliferation assay; assay type: cell-based; conditions: Homo sapiens; SK-OV-3 proliferation, 72 hours, Cell Titer Glo
Protocol: SK-OV-3 Cell Proliferation Assay
as §2, with “SK-OV-3 proliferation” for “HCT116 Proliferation”, “5000” for “3000”

[13] = molecular target: T4, PI3Kα; experiment: Mass spectrometry of intact PI3Kα (Johns Hopkins), 3 hr incubation; assay type: binding; parameters: Johns Hopkins; conditions: 10× fold excess of compound, MALDI
Protocol: as §1
Target sequence in this assay (P42336 whole entry): as the sequence (P42336 whole entry) above
Target sequence in this assay (P27986 322-600 partner limits assumed): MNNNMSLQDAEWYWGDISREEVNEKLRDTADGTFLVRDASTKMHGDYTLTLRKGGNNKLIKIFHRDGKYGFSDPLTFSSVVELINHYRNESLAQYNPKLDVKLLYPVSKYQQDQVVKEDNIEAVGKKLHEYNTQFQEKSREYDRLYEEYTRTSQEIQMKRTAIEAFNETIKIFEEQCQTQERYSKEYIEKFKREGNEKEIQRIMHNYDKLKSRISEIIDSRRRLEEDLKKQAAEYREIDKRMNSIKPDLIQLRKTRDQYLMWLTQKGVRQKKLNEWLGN
Intact PI3Kα (Johns Hopkins) was incubated for 3 hr at a 10× fold excess of II-a-45 or II-a-49 to protein. Aliquots (3 μL) of the samples were diluted with 10 μL of 0.1% TFA prior to micro C4 ZipTipping directly onto the MALDI target using Sinapinic acid as the desorption matrix (10 mg/ml in 0.1% TFA:Acetonitrile 50:50).

[14] = Homo sapiens, SK-OV-3, SKOV3 cells, 1 hr, read-out: pAKT Inhibition in cell Western
[15] = Homo sapiens, SK-OV-3, Table 18, assay not given, classes agree with Table 23, read-out: EC50 pAkt^Ser473

T1 sequence (P42336 whole entry): as the sequence (P42336 whole entry) above
T1 sequence (P27986 whole entry partner): as the sequence (P27986 whole entry partner) above
T3 sequence (P42338 whole entry): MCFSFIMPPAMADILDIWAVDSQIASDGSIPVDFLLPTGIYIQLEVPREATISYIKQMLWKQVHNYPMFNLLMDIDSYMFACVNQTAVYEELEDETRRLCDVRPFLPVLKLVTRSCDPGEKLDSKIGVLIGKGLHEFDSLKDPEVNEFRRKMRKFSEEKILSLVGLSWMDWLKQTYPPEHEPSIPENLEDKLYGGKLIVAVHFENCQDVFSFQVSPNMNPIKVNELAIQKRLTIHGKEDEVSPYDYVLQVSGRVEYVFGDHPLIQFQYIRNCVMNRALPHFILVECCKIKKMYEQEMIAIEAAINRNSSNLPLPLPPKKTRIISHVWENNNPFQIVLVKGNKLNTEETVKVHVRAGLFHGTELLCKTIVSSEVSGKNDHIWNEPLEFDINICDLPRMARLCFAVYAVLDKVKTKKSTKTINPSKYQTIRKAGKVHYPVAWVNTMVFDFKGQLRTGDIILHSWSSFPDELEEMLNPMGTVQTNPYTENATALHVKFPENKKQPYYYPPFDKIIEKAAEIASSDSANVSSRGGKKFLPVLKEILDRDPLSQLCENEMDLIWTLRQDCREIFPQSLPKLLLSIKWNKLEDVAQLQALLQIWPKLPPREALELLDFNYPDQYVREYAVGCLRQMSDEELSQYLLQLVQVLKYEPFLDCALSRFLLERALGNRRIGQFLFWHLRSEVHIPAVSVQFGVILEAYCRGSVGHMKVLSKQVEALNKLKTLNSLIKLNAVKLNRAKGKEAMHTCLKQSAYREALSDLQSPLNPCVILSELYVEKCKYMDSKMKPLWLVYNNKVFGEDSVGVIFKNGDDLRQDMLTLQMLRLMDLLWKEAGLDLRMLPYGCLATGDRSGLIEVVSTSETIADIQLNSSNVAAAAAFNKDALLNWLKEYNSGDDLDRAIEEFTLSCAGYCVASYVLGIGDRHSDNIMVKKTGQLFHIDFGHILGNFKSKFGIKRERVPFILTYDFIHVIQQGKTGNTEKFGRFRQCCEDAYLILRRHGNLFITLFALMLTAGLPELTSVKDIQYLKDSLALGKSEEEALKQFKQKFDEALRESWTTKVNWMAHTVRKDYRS
T3 sequence (P27986 whole entry partner): as the sequence (P27986 whole entry partner) above
T2 sequence (P48736 whole entry): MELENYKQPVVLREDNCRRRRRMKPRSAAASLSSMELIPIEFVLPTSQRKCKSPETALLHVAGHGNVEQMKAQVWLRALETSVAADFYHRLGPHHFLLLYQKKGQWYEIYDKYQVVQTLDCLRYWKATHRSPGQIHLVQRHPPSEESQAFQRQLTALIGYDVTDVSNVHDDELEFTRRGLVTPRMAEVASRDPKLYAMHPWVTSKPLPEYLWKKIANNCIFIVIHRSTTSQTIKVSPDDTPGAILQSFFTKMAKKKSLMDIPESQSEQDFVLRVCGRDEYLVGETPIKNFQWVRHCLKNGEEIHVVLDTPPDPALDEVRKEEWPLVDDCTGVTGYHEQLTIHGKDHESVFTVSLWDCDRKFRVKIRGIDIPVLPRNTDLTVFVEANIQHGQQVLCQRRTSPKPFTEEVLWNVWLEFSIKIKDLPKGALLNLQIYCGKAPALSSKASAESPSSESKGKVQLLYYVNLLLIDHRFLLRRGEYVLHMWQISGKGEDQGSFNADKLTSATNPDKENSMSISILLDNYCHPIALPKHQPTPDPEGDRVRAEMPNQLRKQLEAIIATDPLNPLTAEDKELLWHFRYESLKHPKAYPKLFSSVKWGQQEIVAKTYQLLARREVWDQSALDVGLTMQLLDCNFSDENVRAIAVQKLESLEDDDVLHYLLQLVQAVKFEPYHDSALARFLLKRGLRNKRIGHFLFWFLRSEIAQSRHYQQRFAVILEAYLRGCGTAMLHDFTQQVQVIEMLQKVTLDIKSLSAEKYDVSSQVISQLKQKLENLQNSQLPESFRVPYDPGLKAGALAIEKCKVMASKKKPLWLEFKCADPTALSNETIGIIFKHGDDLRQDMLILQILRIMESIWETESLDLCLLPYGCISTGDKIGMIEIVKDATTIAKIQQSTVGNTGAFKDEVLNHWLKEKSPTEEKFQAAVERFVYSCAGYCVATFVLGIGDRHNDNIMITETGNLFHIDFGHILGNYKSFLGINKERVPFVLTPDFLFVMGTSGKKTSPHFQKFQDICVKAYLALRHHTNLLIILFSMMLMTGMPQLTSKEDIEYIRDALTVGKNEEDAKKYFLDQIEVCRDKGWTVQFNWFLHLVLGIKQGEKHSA
p110alpha, sequence (P42336 whole entry): as the sequence (P42336 whole entry) above

Row | Structure (SMILES) | IC50 [1] [nM] | IC50 [2] [nM] | IC50 [3] [nM] | EC50 [10] [nM] | EC50 [11] [nM] | EC50 [12] [nM] | covalent modification of PI3Kα [13] | other results
1 | C=CC(=O)Nc1ccc(CCNC(=O)c2cc3nc(-c4cccc5[nH]ncc45)nc(N4CCOCC4)c3s2)cc1 [II-a-148, N-(4-acrylamidophenethyl)-2-(1H-indazol-4-yl)-4-morpholinothieno[3,2-d]pyrimidine-6-carboxamide] | 100 to 1000 |  | > 1000 |  |  |  |  | EC50 [6]: ≤ 10 nM; EC50 [4, 14]: 10 to 100 nM; EC50 [4, 15]: 10 to 100 nM; EC50 ([4]; Table 19, assay not given, classes agree with Table 23, read-out: EC50 pAkt^Ser473): 10 to 100 nM; GI50 ([7]; SKOV3 cells, 96 hours, Cell Titer Glo): 10 to 100 nM; GI50 ([7]; Table 19, assay not given, classes agree with Table 26): 10 to 100 nM; target occupancy (competition with the covalent probe) ([8]; covalent probe XIV-a-3 or XIV-a-4): Dose-dependent target occupancy; EC50 ([8]; read-out: EC50 for occupying p110alpha, covalent probe XIV-a-3 or XIV-a-4): ~40 nM; Prolonged PD ([5]; Table 18): Yes; Prolonged PD ([5]; Table 19): Yes; covalent modification of PI3Kα [9]: complete modification; also recorded: covalent modification; mass shift of PI3Kα [9]: 472 Da; mass shift of PI3Kα, per cent in brackets [9]: 85%
2 | C=C(C)C(=O)CCC(=O)N1CCN(Cc2cc3nc(-c4cccc(O)c4)nc(N4CCOCC4)c3s2)CC1 [II-a-49, 1-(4-((2-(3-hydroxyphenyl)-4-morpholinothieno[3,2-d]pyrimidin-6-yl)methyl)piperazin-1-yl)-5-methylhex-5-ene-1,4-dione] | 10 to 100 | > 1000 |  | < 20 | 100 to 1000 | 100 to 1000 | complete modification; also recorded: covalent modification | positive mass shift of PI3Kα [13]: 616 Da
3 | O=C(/C=C/C1CC1)CCC(=O)N1CCN(Cc2cc3nc(-c4cccc5[nH]ncc45)nc(N4CCOCC4)c3s2)CC1 [II-a-55, (E)-1-(4-((2-(1H-indazol-4-yl)-4-morpholinothieno[3,2-d]pyrimidin-6-yl)methyl)piperazin-1-yl)-6-cyclopropylhex-5-ene-1,4-dione] | 10 to 100 | > 1000 | > 1000 | 20 to 100 | 100 to 1000 | 1000 to 10000 | completely modify | 
4 | C/C=C/C(=O)CCC(=O)N1CCN(Cc2cc3nc(-c4cccc(O)c4)nc(N4CCOCC4)c3s2)CC1 [II-a-50, (E)-1-(4-((2-(3-hydroxyphenyl)-4-morpholinothieno[3,2-d]pyrimidin-6-yl)methyl)piperazin-1-yl)hept-5-ene-1,4-dione] | < 10 | > 1000 |  | < 20 | 100 to 1000 | 100 to 1000 | completely modify | 

More lines, main results first:

Row | IC50 [1] [nM] | IC50 [2] [nM] | IC50 [3] [nM] | EC50 [10] [nM] | EC50 [11] [nM] | EC50 [12] [nM] | covalent modification of PI3Kα [13] | Structure (SMILES) | other results
5 | 100 to 1000 | > 1000 | > 1000 |  |  |  |  | CCC(=O)Nc1ccc(CCNC(=O)c2cc3nc(-c4cccc5[nH]ncc45)nc(N4CCOCC4)c3s2)cc1 [II^R-a-148, 2-(1H-indazol-4-yl)-4-morpholino-N-(4-propionamidophenethyl)thieno[3,2-d]pyrimidine-6-carboxamide] | EC50 [4, 14]: 100 to 1000 nM; EC50 [4, 15]: 100 to 1000 nM; Prolonged PD ([5]; Table 18): No
6 | 10 to 100 | > 1000 | > 1000 | < 20 | 100 to 1000 | 100 to 1000 | completely modify | C=C(C)C(=O)CCC(=O)N1CCN(Cc2cc3nc(-c4cccc5[nH]ncc45)nc(N4CCOCC4)c3s2)CC1 [II-a-43, 1-(4-((2-(1H-indazol-4-yl)-4-morpholinothieno[3,2-d]pyrimidin-6-yl)methyl)piperazin-1-yl)-5-methylhex-5-ene-1,4-dione] | 
7 | < 10 | > 1000 |  | 20 to 100 | 100 to 1000 | 100 to 1000 | completely modify | CC/C=C/C(=O)CCC(=O)N1CCN(Cc2cc3nc(-c4cccc5[nH]ncc45)nc(N4CCOCC4)c3s2)CC1 [II-a-53, (E)-1-(4-((2-(1H-indazol-4-yl)-4-morpholinothieno[3,2-d]pyrimidin-6-yl)methyl)piperazin-1-yl)oct-5-ene-1,4-dione] | 
